What was measured:
[1] = target: Sodium-dependent dopamine transporter (Homo sapiens, UniProt Q01959); experiment: Selectivity interaction (Enzyme panel (CEREP ligand profiling)) EUB0000328a SLC6A3; details: at 10 µM
[2] = target: Sodium-dependent serotonin transporter (Homo sapiens) (UniProt P31645); experiment: Selectivity interaction (Enzyme panel (CEREP ligand profiling)) EUB0000328a SLC6A4; details: at 10 µM
[3] = target: T1, Gamma-aminobutyric acid receptor subunit alpha-1 (Homo sapiens, UniProt P14867); experiment: Selectivity interaction (GPCR panel (PDSP screen)) EUB0000328a GABRA1
T1 sequence (P14867 whole entry): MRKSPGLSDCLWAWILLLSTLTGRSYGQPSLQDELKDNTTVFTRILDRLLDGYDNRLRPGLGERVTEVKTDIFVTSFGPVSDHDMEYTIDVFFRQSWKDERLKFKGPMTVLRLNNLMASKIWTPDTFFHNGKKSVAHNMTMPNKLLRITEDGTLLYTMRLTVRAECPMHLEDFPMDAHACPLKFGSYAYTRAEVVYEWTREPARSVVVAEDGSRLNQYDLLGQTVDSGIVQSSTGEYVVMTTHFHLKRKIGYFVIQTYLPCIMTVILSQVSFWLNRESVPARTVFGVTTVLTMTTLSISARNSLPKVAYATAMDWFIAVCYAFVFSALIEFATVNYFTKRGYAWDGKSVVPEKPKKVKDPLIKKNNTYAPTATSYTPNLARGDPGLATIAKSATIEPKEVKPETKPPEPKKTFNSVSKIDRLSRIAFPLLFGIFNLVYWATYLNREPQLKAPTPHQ

[4] = tested on: Tyrosine-protein kinase ABL1 (Homo sapiens), P00519 [H396P]; experiment: Selectivity interaction (KinomeScan (DiscoverX)) EUB0000328a ABL1; details: at 1 µM
[5] = target: T2, Serine/threonine-protein kinase LATS2 (Homo sapiens) (UniProt Q9NRM7); experiment: Selectivity interaction (KinomeScan (DiscoverX)) EUB0000328a LATS2; details: at 1 µM
T2 sequence (whole entry): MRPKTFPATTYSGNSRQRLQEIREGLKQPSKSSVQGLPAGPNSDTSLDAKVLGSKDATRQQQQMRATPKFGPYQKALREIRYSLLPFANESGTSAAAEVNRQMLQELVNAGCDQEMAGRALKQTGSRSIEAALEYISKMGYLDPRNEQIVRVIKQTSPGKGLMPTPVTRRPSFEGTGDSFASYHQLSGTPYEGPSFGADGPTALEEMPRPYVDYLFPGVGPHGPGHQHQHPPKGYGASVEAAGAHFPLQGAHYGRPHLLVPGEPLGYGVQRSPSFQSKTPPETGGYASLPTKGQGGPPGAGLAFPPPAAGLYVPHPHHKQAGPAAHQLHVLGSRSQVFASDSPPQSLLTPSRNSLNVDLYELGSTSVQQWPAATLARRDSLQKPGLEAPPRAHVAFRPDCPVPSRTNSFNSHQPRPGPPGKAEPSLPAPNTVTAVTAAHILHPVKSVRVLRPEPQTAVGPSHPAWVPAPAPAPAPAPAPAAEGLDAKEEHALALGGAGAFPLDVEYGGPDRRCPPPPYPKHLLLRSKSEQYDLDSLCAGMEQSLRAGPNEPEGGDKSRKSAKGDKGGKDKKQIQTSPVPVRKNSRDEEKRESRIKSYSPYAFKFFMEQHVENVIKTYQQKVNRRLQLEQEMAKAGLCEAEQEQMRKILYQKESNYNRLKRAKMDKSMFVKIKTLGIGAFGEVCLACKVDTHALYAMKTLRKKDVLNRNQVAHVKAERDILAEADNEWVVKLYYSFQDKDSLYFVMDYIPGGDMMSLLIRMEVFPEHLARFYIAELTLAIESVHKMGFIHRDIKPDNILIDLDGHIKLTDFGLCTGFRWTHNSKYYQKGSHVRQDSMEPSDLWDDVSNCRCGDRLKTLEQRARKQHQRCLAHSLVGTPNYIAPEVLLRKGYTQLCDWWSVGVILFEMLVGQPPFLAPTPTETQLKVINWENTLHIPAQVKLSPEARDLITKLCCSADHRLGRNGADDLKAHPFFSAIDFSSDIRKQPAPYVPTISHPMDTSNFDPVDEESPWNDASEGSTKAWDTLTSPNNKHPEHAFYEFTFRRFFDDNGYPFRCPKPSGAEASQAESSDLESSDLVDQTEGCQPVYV

[6] = target: Protein kinase C epsilon type (Homo sapiens) (UniProt Q02156); experiment: Selectivity interaction (KinomeScan (DiscoverX)) EUB0000328a PRKCE; details: at 1 µM
[7] = target: Protein arginine N-methyltransferase 5 (Homo sapiens, UniProt O14744); experiment: Selectivity interaction (Methyltransferase panel (Scintillation proximity assay (SPA))) EUB0000212b PRMT5
[8] = target: T3, Histone-lysine N-methyltransferase SETD7 (Homo sapiens, UniProt Q8WTS6); experiment: Selectivity interaction (Methyltransferase panel (Scintillation proximity assay (SPA))) EUB0000212b SETD7
T3 sequence (Q8WTS6 whole entry): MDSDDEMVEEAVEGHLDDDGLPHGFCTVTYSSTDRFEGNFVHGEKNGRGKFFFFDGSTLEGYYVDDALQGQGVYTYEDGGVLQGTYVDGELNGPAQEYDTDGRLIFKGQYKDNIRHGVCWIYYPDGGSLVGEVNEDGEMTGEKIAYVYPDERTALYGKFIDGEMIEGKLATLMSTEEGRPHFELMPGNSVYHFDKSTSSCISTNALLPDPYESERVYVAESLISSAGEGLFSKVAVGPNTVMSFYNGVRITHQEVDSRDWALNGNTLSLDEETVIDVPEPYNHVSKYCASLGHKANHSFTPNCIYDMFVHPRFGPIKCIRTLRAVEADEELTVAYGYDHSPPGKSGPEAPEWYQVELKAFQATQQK

[9] = target: DNA (cytosine-5)-methyltransferase 1 (Homo sapiens, UniProt P26358); experiment: Selectivity interaction (Methyltransferase panel (Scintillation proximity assay (SPA))) EUB0000212b DNMT1
[10] = target: Histone-lysine N-methyltransferase 2A (Homo sapiens, UniProt Q03164); experiment: Selectivity interaction (Methyltransferase panel (Scintillation proximity assay (SPA))) EUB0000212b MLL
[11] = target: Histone-lysine N-methyltransferase, H3 lysine-79 specific (Homo sapiens, UniProt Q8TEK3); experiment: Selectivity interaction (Methyltransferase panel (Scintillation proximity assay (SPA))) EUB0000212b DOT1L
[12] = target: T4, Histone-lysine N-methyltransferase EZH1 (Homo sapiens, UniProt Q92800); experiment: Selectivity interaction (Methyltransferase panel (Scintillation proximity assay (SPA))) EUB0000212b EZH1
T4 sequence (Q92800 whole entry): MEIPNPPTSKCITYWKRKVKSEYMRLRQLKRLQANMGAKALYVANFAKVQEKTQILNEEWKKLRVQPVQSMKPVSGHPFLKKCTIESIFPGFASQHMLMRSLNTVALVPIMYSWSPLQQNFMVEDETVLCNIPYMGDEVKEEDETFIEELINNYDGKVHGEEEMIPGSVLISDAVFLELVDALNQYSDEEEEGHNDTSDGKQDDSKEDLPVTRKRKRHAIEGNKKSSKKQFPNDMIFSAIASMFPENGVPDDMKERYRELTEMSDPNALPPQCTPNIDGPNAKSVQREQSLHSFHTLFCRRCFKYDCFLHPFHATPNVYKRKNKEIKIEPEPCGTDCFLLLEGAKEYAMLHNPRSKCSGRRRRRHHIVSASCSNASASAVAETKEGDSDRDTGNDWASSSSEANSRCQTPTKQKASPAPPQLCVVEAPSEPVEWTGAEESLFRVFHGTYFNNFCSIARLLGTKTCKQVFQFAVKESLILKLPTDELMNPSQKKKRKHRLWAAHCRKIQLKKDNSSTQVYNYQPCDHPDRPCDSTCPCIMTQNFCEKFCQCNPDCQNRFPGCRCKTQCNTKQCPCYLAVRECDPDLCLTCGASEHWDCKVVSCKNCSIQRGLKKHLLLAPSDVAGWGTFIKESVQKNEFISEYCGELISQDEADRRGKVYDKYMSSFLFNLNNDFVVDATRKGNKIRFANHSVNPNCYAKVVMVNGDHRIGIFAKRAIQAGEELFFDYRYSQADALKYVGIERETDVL

[13] = target: Histone-lysine N-methyltransferase EZH2 (Homo sapiens, UniProt Q15910); experiment: Selectivity interaction (Methyltransferase panel (Scintillation proximity assay (SPA))) EUB0000212b EZH2
[14] = target: Histone-lysine N-methyltransferase NSD2 (Homo sapiens, UniProt O96028); experiment: Selectivity interaction (Methyltransferase panel (Scintillation proximity assay (SPA))) EUB0000212b NSD2
[15] = target: Histone-lysine N-methyltransferase NSD3 (Homo sapiens, UniProt Q9BZ95); experiment: Selectivity interaction (Methyltransferase panel (Scintillation proximity assay (SPA))) EUB0000212b NSD3
[16] = target: Protein arginine N-methyltransferase 1 (Homo sapiens, UniProt Q99873); experiment: Selectivity interaction (Methyltransferase panel (Scintillation proximity assay (SPA))) EUB0000212b PRMT1
[17] = target: Protein arginine N-methyltransferase 3 (Homo sapiens, UniProt O60678); experiment: Selectivity interaction (Methyltransferase panel (Scintillation proximity assay (SPA))) EUB0000212b PRMT3
[18] = target: Protein arginine N-methyltransferase 6 (Homo sapiens, UniProt Q96LA8); experiment: Selectivity interaction (Methyltransferase panel (Scintillation proximity assay (SPA))) EUB0000212b PRMT6
[19] = target: Protein arginine N-methyltransferase 8 (Homo sapiens, UniProt Q9NR22); experiment: Selectivity interaction (Methyltransferase panel (Scintillation proximity assay (SPA))) EUB0000212b PRMT8
[20] = target: T5, N-lysine methyltransferase KMT5A (Homo sapiens, UniProt Q9NQR1); experiment: Selectivity interaction (Methyltransferase panel (Scintillation proximity assay (SPA))) EUB0000212b SETD8
T5 sequence (Q9NQR1 whole entry): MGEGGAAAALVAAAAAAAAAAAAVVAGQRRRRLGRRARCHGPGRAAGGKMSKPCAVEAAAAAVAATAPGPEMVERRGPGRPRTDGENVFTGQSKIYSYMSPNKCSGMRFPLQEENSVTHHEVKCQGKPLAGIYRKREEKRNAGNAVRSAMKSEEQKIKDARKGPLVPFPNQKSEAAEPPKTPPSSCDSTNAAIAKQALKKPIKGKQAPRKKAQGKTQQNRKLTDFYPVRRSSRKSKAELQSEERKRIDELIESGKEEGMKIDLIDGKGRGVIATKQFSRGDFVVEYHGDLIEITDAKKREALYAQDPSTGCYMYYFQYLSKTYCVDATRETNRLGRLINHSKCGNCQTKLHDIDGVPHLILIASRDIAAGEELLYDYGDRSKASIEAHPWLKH

[21] = target: Histone-lysine N-methyltransferase SETDB1 (Homo sapiens, UniProt Q15047); experiment: Selectivity interaction (Methyltransferase panel (Scintillation proximity assay (SPA))) EUB0000212b SETDB1
[22] = target: Histone-lysine N-methyltransferase SMYD3 (Homo sapiens, UniProt Q9H7B4); experiment: Selectivity interaction (Methyltransferase panel (Scintillation proximity assay (SPA))) EUB0000212b SMYD3
[23] = target: Histone-lysine N-methyltransferase SUV39H2 (Homo sapiens, UniProt Q9H5I1); experiment: Selectivity interaction (Methyltransferase panel (Scintillation proximity assay (SPA))) EUB0000212b SUV39H2
[24] = target: Histone-lysine N-methyltransferase KMT5B (Homo sapiens, UniProt Q4FZB7); experiment: Selectivity interaction (Methyltransferase panel (Scintillation proximity assay (SPA))) EUB0000212b SUV420H1
[25] = target: Histone-lysine N-methyltransferase KMT5C (Homo sapiens, UniProt Q86Y97); experiment: Selectivity interaction (Methyltransferase panel (Scintillation proximity assay (SPA))) EUB0000212b SUV420H2

Chain of Sodium-dependent dopamine transporter (Q01959 whole entry): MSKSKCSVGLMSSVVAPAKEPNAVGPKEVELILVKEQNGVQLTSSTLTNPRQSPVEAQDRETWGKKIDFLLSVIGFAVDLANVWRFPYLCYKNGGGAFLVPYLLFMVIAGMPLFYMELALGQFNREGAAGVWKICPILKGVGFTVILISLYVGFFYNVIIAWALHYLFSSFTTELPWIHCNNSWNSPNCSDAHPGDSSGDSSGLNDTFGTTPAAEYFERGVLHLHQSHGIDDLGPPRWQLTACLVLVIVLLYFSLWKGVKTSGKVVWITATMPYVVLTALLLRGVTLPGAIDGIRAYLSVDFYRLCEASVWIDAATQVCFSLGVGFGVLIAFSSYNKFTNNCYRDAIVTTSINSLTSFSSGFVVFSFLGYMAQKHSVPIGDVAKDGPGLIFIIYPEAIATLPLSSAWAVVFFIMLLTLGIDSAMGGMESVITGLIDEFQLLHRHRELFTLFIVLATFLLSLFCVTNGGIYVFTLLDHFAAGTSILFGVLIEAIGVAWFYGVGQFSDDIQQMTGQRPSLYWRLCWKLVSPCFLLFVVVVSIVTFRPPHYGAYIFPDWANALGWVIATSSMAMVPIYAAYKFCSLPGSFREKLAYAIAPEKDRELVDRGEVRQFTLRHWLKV
Chain of Histone-lysine N-methyltransferase KMT5B (Q4FZB7 whole entry): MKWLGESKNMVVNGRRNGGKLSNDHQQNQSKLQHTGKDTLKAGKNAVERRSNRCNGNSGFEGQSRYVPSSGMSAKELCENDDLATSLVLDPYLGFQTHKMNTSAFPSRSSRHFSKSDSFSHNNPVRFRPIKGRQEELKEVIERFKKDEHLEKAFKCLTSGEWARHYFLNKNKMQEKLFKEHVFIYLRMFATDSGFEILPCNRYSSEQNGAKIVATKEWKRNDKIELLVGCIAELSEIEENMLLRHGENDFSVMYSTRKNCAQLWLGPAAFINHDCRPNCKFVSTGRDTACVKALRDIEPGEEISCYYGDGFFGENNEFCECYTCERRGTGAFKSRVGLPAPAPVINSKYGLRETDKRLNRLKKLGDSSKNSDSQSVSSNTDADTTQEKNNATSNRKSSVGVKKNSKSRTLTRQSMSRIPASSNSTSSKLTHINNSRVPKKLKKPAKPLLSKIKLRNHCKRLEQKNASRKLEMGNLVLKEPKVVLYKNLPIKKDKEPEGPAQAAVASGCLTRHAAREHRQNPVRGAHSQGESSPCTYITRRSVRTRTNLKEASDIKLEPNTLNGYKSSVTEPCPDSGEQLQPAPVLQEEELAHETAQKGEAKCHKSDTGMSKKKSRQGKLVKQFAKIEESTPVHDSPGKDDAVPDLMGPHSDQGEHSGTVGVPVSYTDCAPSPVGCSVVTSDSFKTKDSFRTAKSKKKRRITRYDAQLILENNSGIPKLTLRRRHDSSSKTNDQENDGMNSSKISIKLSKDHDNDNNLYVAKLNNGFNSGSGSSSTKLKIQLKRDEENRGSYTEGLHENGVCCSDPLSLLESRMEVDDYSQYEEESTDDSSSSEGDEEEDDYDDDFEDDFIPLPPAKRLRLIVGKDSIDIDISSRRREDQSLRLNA
Chain of Histone-lysine N-methyltransferase NSD2 (O96028 whole entry): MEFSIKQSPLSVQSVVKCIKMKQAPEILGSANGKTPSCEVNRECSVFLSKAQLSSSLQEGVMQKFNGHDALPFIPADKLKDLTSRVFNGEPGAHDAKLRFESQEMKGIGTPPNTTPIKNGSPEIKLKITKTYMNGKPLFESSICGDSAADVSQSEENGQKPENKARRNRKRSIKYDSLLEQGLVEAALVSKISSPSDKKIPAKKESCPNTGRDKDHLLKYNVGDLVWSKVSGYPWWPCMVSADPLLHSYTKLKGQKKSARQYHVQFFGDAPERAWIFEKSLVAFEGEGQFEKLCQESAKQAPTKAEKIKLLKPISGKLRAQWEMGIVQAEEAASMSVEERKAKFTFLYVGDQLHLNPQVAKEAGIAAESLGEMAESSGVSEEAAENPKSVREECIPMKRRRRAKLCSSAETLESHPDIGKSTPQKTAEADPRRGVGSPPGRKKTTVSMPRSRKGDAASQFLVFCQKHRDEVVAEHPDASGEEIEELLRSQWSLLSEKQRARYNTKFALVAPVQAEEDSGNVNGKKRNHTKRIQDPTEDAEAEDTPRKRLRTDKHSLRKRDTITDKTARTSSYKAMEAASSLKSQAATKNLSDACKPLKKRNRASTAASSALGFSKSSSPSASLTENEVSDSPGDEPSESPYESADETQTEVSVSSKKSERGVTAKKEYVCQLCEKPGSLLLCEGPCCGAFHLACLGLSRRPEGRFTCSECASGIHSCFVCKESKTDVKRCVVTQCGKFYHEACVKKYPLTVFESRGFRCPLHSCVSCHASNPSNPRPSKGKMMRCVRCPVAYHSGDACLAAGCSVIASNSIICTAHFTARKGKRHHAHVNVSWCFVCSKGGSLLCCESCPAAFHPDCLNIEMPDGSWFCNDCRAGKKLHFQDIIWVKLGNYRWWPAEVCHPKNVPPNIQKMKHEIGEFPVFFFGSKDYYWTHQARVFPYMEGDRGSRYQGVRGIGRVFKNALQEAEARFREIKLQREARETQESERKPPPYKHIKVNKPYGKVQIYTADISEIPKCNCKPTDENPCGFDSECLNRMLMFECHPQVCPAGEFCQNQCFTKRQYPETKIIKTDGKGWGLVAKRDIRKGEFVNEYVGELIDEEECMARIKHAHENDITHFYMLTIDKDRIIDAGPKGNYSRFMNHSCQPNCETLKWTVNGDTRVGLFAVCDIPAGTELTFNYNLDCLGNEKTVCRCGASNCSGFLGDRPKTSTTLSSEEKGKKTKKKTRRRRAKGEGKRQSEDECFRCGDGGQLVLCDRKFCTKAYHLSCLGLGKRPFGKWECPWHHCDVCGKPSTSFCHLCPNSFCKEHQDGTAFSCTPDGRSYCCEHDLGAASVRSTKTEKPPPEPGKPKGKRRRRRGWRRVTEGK
Chain of Protein kinase C epsilon type (Homo sapiens) (Q02156 whole entry): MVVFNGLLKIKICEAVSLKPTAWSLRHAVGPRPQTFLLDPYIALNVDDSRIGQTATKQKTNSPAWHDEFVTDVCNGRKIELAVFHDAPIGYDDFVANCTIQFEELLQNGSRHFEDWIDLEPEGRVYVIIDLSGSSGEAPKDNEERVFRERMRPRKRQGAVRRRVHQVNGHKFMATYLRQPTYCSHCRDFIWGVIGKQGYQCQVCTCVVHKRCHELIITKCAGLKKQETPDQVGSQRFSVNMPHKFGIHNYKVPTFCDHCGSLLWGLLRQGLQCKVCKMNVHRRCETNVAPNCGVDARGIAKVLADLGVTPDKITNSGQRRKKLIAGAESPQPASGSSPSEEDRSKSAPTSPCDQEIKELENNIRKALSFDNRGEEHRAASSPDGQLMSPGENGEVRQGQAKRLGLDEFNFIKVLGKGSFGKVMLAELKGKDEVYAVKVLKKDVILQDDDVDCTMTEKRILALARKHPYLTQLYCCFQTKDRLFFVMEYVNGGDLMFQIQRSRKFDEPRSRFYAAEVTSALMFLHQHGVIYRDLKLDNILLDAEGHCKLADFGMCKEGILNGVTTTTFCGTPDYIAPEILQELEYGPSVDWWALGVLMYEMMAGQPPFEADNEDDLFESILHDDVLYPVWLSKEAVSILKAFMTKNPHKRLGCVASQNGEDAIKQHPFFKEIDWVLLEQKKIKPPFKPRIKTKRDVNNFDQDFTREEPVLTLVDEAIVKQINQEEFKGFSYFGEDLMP
Chain of Histone-lysine N-methyltransferase NSD3 (Q9BZ95 whole entry): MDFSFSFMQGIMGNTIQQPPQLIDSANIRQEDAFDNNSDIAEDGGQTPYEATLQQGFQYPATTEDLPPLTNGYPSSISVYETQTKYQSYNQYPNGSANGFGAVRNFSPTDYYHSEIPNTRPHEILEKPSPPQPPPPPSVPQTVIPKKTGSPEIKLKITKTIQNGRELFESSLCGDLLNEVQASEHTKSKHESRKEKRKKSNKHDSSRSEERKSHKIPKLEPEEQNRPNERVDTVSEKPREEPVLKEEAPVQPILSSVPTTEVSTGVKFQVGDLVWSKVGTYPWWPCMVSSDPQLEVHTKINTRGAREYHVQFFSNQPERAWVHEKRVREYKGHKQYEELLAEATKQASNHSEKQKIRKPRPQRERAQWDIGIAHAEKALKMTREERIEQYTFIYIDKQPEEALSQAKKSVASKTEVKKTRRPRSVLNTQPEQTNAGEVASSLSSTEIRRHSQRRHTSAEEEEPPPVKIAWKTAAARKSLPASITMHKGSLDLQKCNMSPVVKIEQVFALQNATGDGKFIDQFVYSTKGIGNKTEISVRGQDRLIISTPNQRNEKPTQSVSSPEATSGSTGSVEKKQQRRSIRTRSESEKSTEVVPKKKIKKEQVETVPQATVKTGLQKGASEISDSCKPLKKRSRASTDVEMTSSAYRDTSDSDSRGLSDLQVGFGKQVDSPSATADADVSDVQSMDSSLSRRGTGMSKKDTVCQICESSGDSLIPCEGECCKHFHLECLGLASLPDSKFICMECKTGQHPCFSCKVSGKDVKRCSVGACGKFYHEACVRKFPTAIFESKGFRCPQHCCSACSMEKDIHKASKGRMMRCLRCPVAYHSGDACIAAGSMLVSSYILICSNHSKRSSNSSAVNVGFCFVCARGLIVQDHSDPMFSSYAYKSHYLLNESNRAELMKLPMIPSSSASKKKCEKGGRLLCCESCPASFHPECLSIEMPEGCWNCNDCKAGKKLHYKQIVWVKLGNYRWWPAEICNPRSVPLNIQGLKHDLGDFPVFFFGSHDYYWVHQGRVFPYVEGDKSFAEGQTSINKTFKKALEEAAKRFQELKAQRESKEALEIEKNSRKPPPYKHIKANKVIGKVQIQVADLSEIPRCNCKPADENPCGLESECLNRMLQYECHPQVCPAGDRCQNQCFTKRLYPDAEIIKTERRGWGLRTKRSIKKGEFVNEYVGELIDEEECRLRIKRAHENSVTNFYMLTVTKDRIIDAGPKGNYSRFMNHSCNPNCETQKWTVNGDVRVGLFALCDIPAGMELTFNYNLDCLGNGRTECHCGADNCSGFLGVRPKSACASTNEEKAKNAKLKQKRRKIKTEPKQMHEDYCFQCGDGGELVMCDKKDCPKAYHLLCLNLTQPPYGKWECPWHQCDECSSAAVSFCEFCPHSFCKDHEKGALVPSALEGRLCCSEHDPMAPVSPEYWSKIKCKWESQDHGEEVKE

CNC(=O)Nc1ccc2c(c1)CC[C@@]21OC(=O)N(CC(=O)N(Cc2ccc(F)cc2)[C@@H](C)C(F)(F)F)C1=O [A-485]
% of inhibition [1]: 94% | % of inhibition [2]: 99% | Ki [3]: 1.11 µM | % of control [4]: 49% | % of control [5]: 47% | % of control [6]: 22%

COc1cc2c(cc1OCCCN1CCCC1)N=C(N)C21CCC1
EC50 [7]: > 50 µM | EC50 [8]: > 50 µM | EC50 [9]: > 50 µM | EC50 [10]: > 50 µM | EC50 [11]: > 50 µM | EC50 [12]: > 50 µM | EC50 [13]: > 50 µM | EC50 [14]: > 50 µM | EC50 [15]: > 50 µM | EC50 [16]: > 50 µM | EC50 [17]: > 50 µM | EC50 [18]: > 50 µM | EC50 [19]: > 50 µM | EC50 [20]: > 50 µM | EC50 [21]: > 50 µM | EC50 [22]: > 50 µM | EC50 [23]: > 50 µM | EC50 [24]: > 50 µM | EC50 [25]: > 50 µM

From ChEMBL document CHEMBL5212743, “Selectivity Literature for EUbOPEN Chemogenomics Library wave 3” (2023)
